Results reported in ChEMBL document CHEMBL1201862, “PubChem BioAssay data set” (2004).
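Compound exposure: 48 hours, 5 concentrations, 96-well plates. Here, GI50 denotes the concentration required for 50% inhibition of growth.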 The source made the active and inactive calls. Rule as the data show it: active = GI50 up to about 1.1 µM and inactive = higher.

Tests used:
Experiment in all cases: inhibition of tumour cell growth, NCI panel, 48 h
U-251 = test system: U-251
CAKI-1 = test system: CAKI-1
Hs-578T = test system: Hs-578T
ACHN = test system: ACHN
SK-OV-3 = test system: SK-OV-3
SF-268 = test system: SF-268
MDA-MB-435 = test system: MDA-MB-435
RPMI-8226 = test system: RPMI-8226
OVCAR-5 = test system: OVCAR-5
SK-MEL-28 = test system: SK-MEL-28
IGROV-1 = test system: IGROV-1
M14 = test system: M14
CCRF-CEM = test system: CCRF-CEM
TK-10 = test system: TK-10
SF-295 = test system: SF-295
RXF 393 = test system: RXF 393
OVCAR-8 = test system: OVCAR-8
HOP-62 = test system: HOP-62
HCT-15 = test system: HCT-15
Malme-3M = test system: Malme-3M

SMILES	GI50 (U-251)	GI50 (CAKI-1)	GI50 (Hs-578T)	GI50 (ACHN)	GI50 (SK-OV-3)	GI50 (SF-268)	GI50 (MDA-MB-435)	GI50 (RPMI-8226)	GI50 (OVCAR-5)	GI50 (SK-MEL-28)	GI50 (IGROV-1)	GI50 (M14)	GI50 (CCRF-CEM)	GI50 (TK-10)	GI50 (SF-295)	GI50 (RXF 393)	GI50 (OVCAR-8)	GI50 (HOP-62)	GI50 (HCT-15) [µM]	GI50 (Malme-3M)
CNC(=O)C(C)NC(=O)C(Cc1ccccc1)NC(=O)OC(C)(C)C (stereo not given)	> 100 µM (inactive)	> 100 µM (inactive)	> 100 µM (inactive)	> 100 µM (inactive)	> 100 µM (inactive)	> 100 µM (inactive)	> 100 µM (inactive)	> 100 µM (inactive)	> 100 µM (inactive)	> 100 µM (inactive)	> 100 µM (inactive)	> 100 µM (inactive)	> 100 µM (inactive)	> 100 µM (inactive)	> 100 µM (inactive)	> 100 µM (inactive)	> 100 µM (inactive)	> 100 µM (inactive)	> 100	> 100 µM (inactive)
CN(N)/N=N/c1[nH]cnc1[N+](=O)[O-]	> 100 µM (inactive)	20.8 µM (inactive)	> 100 µM (inactive)	> 100 µM (inactive)	> 100 µM (inactive)	42.9 µM (inactive)	> 100 µM (inactive)	22 µM (inactive)	> 100 µM (inactive)	> 100 µM (inactive)	> 100 µM (inactive)	> 100 µM (inactive)	5.01 µM (inactive)	> 100 µM (inactive)	> 100 µM (inactive)	> 100 µM (inactive)	28.4 µM (inactive)	> 100 µM (inactive)	> 100	> 100 µM (inactive)
NS(=O)(=O)c1ccc(NC(=S)NC(=O)Nc2ccc(Cl)c(Cl)c2)cc1	14.9 µM (inactive)	18.7 µM (inactive)	25.1 µM (inactive)	11.5 µM (inactive)	18.5 µM (inactive)	12.8 µM (inactive)	14.4 µM (inactive)	19.6 µM (inactive)	12.8 µM (inactive)	17.8 µM (inactive)	19.3 µM (inactive)	7.33 µM (inactive)	16.5 µM (inactive)	25.1 µM (inactive)	13.4 µM (inactive)	15.3 µM (inactive)	18.4 µM (inactive)	17.4 µM (inactive)	11.4	15.2 µM (inactive)
